Assay results reported in PMC3093256, “Synthesis of 1-Substituted Carbazolyl-1,2,3,4-tetrahydro- and Carbazolyl-3,4-dihydro-β-carboline Analogs as Potential Antitumor Agents” (Marine Drugs, 2011).
Converted amounts (≈) assume the structure as drawn.

How the values were obtained:
[1] = target: T1, human DNA topoisomerase I (Homo sapiens, UniProt P11387); test: Relaxation assay of topoisomerase I (supercoiled pBR322); assay type: biochemical; conditions: five concentrations 5, 10, 25, 50 and 100 μg/mL; read-out: Inhibition of DNA topoisomerase I IC50 (converted)
T1 construct: purchased TopoGen
T1 sequence (P11387 1-765): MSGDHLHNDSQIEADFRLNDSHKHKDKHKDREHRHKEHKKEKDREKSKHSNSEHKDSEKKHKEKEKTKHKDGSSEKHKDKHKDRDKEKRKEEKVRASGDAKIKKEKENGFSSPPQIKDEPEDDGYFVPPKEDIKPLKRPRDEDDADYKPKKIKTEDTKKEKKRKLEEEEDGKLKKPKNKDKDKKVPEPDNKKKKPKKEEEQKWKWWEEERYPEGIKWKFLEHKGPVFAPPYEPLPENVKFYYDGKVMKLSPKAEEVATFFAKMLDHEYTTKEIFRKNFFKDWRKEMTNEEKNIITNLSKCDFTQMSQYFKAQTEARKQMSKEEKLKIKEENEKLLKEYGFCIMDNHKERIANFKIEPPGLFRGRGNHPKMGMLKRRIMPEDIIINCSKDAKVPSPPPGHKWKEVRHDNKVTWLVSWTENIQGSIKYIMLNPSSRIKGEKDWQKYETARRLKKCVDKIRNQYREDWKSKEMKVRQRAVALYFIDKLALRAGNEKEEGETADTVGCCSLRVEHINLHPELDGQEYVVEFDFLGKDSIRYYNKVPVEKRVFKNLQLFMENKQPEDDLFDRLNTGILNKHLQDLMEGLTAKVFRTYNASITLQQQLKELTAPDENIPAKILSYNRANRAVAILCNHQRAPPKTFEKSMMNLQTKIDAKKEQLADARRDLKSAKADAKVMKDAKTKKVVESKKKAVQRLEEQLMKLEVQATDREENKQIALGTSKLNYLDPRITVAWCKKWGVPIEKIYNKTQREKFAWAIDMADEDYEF
Protocol: (§1) Topoisomerases I and II (topo I and II) assays were measured by assessing relaxation of supercoiled pBR322 plasmid DNA according to [24]. […] In summary, topo I (TopoGen) was mixed with the test sample and 10° volume of assay buffer (100 mM Tris-HCl, 10 mM EDTA, 1.5 M NACl, 1.0% BSA, […], and 50% glycerol), and then supercoiled DNA (pBR322) was added. In topo II assay, the mixture contained test sample and buffer including 50 mM Tris-HCl, 120 mM KCl, 10 mM MgCl2, 0.5 mM ATP, 0.5 mM dithiothreitol, 2 μg BSA, pBR322 plasmid DNA (0.25 μg), and 3U of topo II (TopoGen) in final volume of 20 μL. After incubation of topo I or topo II mixture for 30 min at 37 °C, 2 λ 10% SDS and 2.5 λ proteinase K were added for 1 h. The reaction mixtures were electrophoresed on a 2% agarose gel (50 V, 20 min; 100 V, 30 min; 110 V, 30 min) and stained with ethidium bromide. Finally, by a densitometer of ImageMaster® (Fujifilm thermal imaging system, FTI-500), the gels were directly scanned and the area representing supercoiled DNA was calculated.

[2] = test system: HepG2/A2 (human hepatoma); test: Cytotoxicity assay, HepG2/A2 cells; assay type: cell-based; conditions: for IC50: Homo sapiens, 72 h, HepG2/A2 cells, 3 days incubation, by interpolation
Protocol: (§2) The cytotoxic activities of compounds against KB (human mouth epidermoid carcinoma), DLD (human colon adenocarcinoma), NCI-H661 (human lung large cell carcinoma), Hepa (human hepatoma), and HepG2/A2 (human hepatoblastoma) cells were assayed by the […] assay as previously described. The cells for assay were cultured in RPMI-1640 medium supplemented with […] in an incubator at 37 °C. The cytotoxicity assay depends on the binding of methylene blue to fixed monolayers of cells at pH 8.5, washing the monolayer, and releasing the dye by lowering the pH value. Samples and control standard drugs were prepared at a concentration of 1, 10, 40, and 100 μg/mL. After seeding 2880 cells/well in a 96-well microplate for 3 h, 20 μL of sample or standard agent was placed in each well and incubated at 37 °C for 3 days. After removing the medium from the microplates, the cells were fixed with 10% formaldehyde in 0.9% saline for 30 min, then dyed with 1% (w/v) methylene blue in 0.01 M borate-buffer (100 μL/well) for 30 min. The 96-well plate was dipped into a 0.01 M borate-buffer solution four times in order to remove the dye. Then, 100 μL/well of EtOH-0.1 M HCl (1:1) was added as a dye eluting solvent, and the absorbance was measured on a microtiter plate reader (Dynatech, MR 7000) at a wavelength of 650 nm. […] Doxorubicin was used as a standard compound.

[3] = test system: KB (human mouth epidermoid carcinoma); test: Cytotoxicity assay, KB cells; assay type: cell-based; conditions: 72 h, 3 days incubation, by interpolation
Protocol: as §2

[4] = test system: DLD (human colon adenocarcinoma); test: Cytotoxicity assay, DLD cells; assay type: cell-based; conditions: for IC50: Homo sapiens, 72 h, 3 days incubation, by interpolation
Protocol: as §2

[5] = target: T2, human DNA topoisomerase II (Homo sapiens, UniProt P11388); test: Relaxation assay of topoisomerase II (supercoiled pBR322); assay type: biochemical; conditions: for inhibition of DNA topoisomerase II (in words): compared with etoposide; for IC50: five concentrations 5, 10, 25, 50 and 100 μg/mL, read-out: Inhibition of DNA topoisomerase II IC50 (converted); for fold more potent against topoisomerase II compared to etoposide: relative to etoposide
T2 construct: purchased TopoGen
Protocol: as §1

[6] = test system: NCI-H661 (human lung large cell carcinoma); test: Cytotoxicity assay, NCI-H661 cells; assay type: cell-based; conditions: 72 h, 3 days incubation, by interpolation
Protocol: as §2

Hepa (human hepatoma) = test: Cytotoxicity assay, Hepa cells; assay type: cell-based; conditions: 72 h, 3 days incubation, by interpolation
Protocol: as §2

T2 sequence (P11388 whole entry): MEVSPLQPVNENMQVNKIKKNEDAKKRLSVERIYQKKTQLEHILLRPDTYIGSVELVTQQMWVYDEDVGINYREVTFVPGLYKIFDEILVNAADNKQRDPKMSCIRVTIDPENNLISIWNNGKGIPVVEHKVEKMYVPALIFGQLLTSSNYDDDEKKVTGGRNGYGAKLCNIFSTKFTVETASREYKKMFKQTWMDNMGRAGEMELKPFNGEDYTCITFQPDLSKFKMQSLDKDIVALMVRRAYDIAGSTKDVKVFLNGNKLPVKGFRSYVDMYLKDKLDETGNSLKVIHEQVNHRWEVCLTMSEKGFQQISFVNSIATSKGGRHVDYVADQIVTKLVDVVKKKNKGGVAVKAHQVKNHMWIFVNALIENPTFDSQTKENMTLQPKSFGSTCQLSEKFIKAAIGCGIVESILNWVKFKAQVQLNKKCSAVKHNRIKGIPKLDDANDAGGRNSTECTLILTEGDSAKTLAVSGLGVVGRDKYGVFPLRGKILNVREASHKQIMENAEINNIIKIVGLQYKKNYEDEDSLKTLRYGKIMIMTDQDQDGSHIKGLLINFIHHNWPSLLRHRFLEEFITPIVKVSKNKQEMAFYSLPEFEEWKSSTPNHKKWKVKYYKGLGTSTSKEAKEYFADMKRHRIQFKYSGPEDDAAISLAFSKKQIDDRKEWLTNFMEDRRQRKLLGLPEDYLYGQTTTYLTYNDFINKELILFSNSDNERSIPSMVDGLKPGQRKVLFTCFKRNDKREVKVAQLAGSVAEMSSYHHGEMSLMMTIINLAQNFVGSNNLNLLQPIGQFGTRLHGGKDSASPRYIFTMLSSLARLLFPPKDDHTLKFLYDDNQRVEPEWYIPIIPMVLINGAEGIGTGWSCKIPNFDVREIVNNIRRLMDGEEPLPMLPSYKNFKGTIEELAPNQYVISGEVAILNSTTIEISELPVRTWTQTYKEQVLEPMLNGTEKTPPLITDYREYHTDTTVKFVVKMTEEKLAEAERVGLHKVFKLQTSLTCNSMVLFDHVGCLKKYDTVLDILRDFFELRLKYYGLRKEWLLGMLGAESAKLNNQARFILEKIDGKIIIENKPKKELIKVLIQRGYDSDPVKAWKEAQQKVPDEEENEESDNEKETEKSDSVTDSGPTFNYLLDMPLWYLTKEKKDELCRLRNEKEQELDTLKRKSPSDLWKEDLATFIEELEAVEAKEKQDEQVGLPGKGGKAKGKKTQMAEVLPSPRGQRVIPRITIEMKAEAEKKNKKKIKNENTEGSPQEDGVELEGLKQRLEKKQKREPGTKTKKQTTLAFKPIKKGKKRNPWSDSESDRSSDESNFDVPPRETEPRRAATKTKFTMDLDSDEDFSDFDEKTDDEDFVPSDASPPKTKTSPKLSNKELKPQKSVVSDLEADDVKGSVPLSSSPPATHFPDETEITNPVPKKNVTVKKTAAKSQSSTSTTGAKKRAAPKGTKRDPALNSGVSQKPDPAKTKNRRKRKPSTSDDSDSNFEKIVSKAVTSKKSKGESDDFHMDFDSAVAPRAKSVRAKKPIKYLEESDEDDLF

| IC50 [1] [µM] | inhibition of DNA topoisomerase II (in words) [5] | IC50 [5] [µM] | fold more potent against topoisomerase II compared to etoposide [5] | melting point [°C] | Compound | IC50 [2] [µg/mL] | IC50 [3] [µg/mL] | IC50 [4] [µg/mL] | IC50 [6] [µg/mL] | activity in DLD assay (in words) [4] | IC50 (Hepa (human hepatoma)) [µg/mL] | cytotoxicity against HepG2/A2 (in words) ([2]; HepG2/A2 tumor cells) |
| --- | --- | --- | --- | --- | --- | --- | --- | --- | --- | --- | --- | --- |
| 124 | most potent | 4.22 | 10- to 15 fold | 110 to 112 | CCCn1c2ccccc2c2cc(C3NCCc4c3[nH]c3ccccc43)ccc21 (stereo not drawn) [Compound 3, 1-(9′-Propyl-3′-carbazolyl)-1,2,3,4-tetrahydro-β-carboline] | 6.1 (≈ 16.1 µM) | 1.84 (≈ 4.85 µM) | 1.58 (≈ 4.16 µM) | 2.14 (≈ 5.64 µM) | – | – | – |
| > 223 | – | 64.8 | – | 91 to 92 | CCCCCCCCn1c2ccccc2c2cc(C3=NCCc4c3[nH]c3ccccc43)ccc21 [Compound 12, 1-(9′-Octyl-3′-carbazolyl)-3,4-dihydro-β-carboline] | 30.1 (≈ 67.2 µM) | 9.13 (≈ 20.4 µM) | 2.55 (≈ 5.7 µM) | 5.28 (≈ 11.8 µM) | – | – | – |
| > 222 | – | 66.7 | – | 87 to 89 | CCCCCCCCn1c2ccccc2c2cc(C3NCCc4c3[nH]c3ccccc43)ccc21 (stereo not drawn) [Compound 11, 1-(9′-Octyl-3′-carbazolyl)-1,2,3,4-tetrahydro-β-carboline] | 20.7 (≈ 46 µM) | > 20 | 1.57 (≈ 3.49 µM) | > 20 | active | – | – |
| > 209 | – | 58.6 | – | 102 to 104 | CCCCCCCCCCn1c2ccccc2c2cc(C3NCCc4c3[nH]c3ccccc43)ccc21 (stereo not drawn) [Compound 13, 1-(9′-Decyl-3′-carbazolyl)-1,2,3,4-tetrahydro-β-carboline] | > 60 | 6.36 (≈ 13.3 µM) | 10.4 (≈ 21.8 µM) | 13.9 (≈ 29.1 µM) | – | – | – |
| 236 | most potent | 6.87 | 10- to 15 fold | 99 to 101 | CC(C)CCn1c2ccccc2c2cc(C3NCCc4c3[nH]c3ccccc43)ccc21 (stereo not drawn) [Compound 9, 1-(9′-[3″-Methylbutyl]-3′-carbazolyl)-1,2,3,4-tetrahydro-β-carboline] | – | 2.96 (≈ 7.26 µM) | – | – | – | 1.12 (≈ 2.75 µM) | – |
| > 179 | – | > 179 | – | 90 to 92 | CCCCCCCCCCCCCCCCn1c2ccccc2c2cc(C3=NCCc4c3[nH]c3ccccc43)ccc21 [Compound 16, 1-(9′-Hexadecyl-3′-carbazolyl)-3,4-dihydro-β-carboline] | > 60 | > 20 | > 20 | > 20 | – | > 20 | – |
| > 275 | – | 23.4 | – | 175 to 177 | CCn1c2ccccc2c2cc(C3=NCCc4c3[nH]c3ccccc43)ccc21 [Compound 2, 1-(9′-Ethyl-3′-carbazolyl)-3,4-dihydro-β-carboline] | 0.6 (≈ 1.65 µM) | 0.71 (≈ 1.95 µM) | 1.09 (≈ 3 µM) | 0.84 (≈ 2.31 µM) | – | – | – |
| > 162 | great activity | 9.09 | – | 91 to 93 | CCCCCCCCCCCCCCCCCCCCn1c2ccccc2c2cc(C3=NCCc4c3[nH]c3ccccc43)ccc21 [Compound 18, 1-(9′-Eicosyl-3′-carbazolyl)-3,4-dihydro-β-carboline] | > 60 | > 20 | > 20 | > 20 | – | > 20 | – |
| > 274 | – | 26 | – | 240 to 242 | CCn1c2ccccc2c2cc(C3NCCc4c3[nH]c3ccccc43)ccc21 (stereo not drawn) [Compound 1, 1-(9′-Ethyl-3′-carbazolyl)-1,2,3,4-tetrahydro-β-carboline] | – | 3.47 (≈ 9.49 µM) | 1.69 (≈ 4.62 µM) | 1.82 (≈ 4.98 µM) | – | – | – |
| > 254 | – | 25.4 | – | 127 to 130 | CCC(C)n1c2ccccc2c2cc(C3NCCc4c3[nH]c3ccccc43)ccc21 (stereo not drawn) [Compound 5, 1-(9′-[1″-Methyl]propyl-3′-carbazolyl)-1,2,3,4-tetrahydro-β-carboline] | – | 3 (≈ 7.62 µM) | – | – | – | 2.25 (≈ 5.72 µM) | – |
| > 265 | most potent | 5.56 | 10- to 15 fold | 126 to 128 | CCCn1c2ccccc2c2cc(C3=NCCc4c3[nH]c3ccccc43)ccc21 [Compound 4, 1-(9′-Propyl-3′-carbazolyl)-3,4-dihydro-β-carboline] | 5.1 (≈ 13.5 µM) | 2.72 (≈ 7.21 µM) | 2.16 (≈ 5.72 µM) | 5.02 (≈ 13.3 µM) | – | – | – |
| > 162 | – | > 162 | – | – | CCCCCCCCCCCCCCCCCCCCn1c2ccccc2c2cc(C3NCCc4c3[nH]c3ccccc43)ccc21 (stereo not drawn) [Compound 17, 1-(9′-Eicosyl-3′-carbazolyl)-1,2,3,4-tetrahydro-β-carboline] | > 60 | > 20 | > 20 | > 20 | – | > 20 | – |
| 165 | most potent | 6.66 | 10- to 15 fold | 135 to 137 | CC(C)CCn1c2ccccc2c2cc(C3=NCCc4c3[nH]c3ccccc43)ccc21 [Compound 10, 1-(9′-[3″-Methylbutyl]-3′-carbazolyl)-3,4-dihydro-β-carboline] | – | 3.13 (≈ 7.72 µM) | – | – | – | 4.4 (≈ 10.8 µM) | – |
| 218 | most potent | 6.62 | – | 129 to 130 | CCCCCn1c2ccccc2c2cc(C3NCCc4c3[nH]c3ccccc43)ccc21 (stereo not drawn) [Compound 7, 1-(9′-Pentyl-3′-carbazolyl)-1,2,3,4-tetrahydro-β-carboline] | 20.5 (≈ 50.3 µM) | 3.45 (≈ 8.46 µM) | 3.75 (≈ 9.2 µM) | 0.22 (≈ 0.54 µM) | – | – | – |
| > 255 | – | 66.4 | – | 151 to 154 | CCC(C)n1c2ccccc2c2cc(C3=NCCc4c3[nH]c3ccccc43)ccc21 (stereo not drawn) [Compound 6, 1-(9′-[1″-Methyl]propyl-3′-carbazolyl)-3,4-dihydro-β-carboline] | – | 0.48 (≈ 1.23 µM) | – | – | – | 2.67 (≈ 6.82 µM) | – |
| 143 | – | 54.2 | – | 97 to 98 | CCCCCn1c2ccccc2c2cc(C3=NCCc4c3[nH]c3ccccc43)ccc21 [Compound 8, 1-(9′-Pentyl-3′-carbazolyl)-3,4-dihydro-β-carboline] | 5.4 (≈ 13.3 µM) | > 20 | 1.29 (≈ 3.18 µM) | 3.39 (≈ 8.36 µM) | – | – | active |
